Source: paper PMC9950073, “Alleviation of arthritis through prevention of neutrophil extracellular traps by an orally available inhibitor of protein arginine deiminase 4” (Scientific Reports, 2023)
Several values for one entry are separate records, joined by “and”; a condition that tells them apart may be missing. Equal entries are not always repeated.

Columns and labels:
[1] = target: T1, CYP2C9 (Homo sapiens, UniProt P11712); test: CYP inhibition in human liver microsome, CYP2C9; type: in vitro ADME
T1 construct: from tissue; host or cells: human liver microsomes
T1 sequence (P11712 whole entry): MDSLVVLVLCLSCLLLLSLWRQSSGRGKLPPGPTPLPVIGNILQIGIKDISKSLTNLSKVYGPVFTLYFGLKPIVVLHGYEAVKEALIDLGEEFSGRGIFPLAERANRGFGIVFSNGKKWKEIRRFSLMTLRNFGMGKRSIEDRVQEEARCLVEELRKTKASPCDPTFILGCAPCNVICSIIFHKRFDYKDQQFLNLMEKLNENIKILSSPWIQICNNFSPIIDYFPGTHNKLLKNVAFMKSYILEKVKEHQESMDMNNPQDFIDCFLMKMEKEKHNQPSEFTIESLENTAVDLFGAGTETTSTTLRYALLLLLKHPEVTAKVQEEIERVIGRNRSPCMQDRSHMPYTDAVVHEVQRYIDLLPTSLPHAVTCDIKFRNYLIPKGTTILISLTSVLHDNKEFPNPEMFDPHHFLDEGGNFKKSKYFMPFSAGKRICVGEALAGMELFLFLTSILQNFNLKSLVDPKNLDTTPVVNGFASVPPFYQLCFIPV
Method: CYP inhibition: Human liver microsome (0.1–0.5 mg/mL for various CYPs) and appropriate probe substrates (2.5–20 µM) were incubated in potassium phosphate buffer with or without JBI-589 for 5 min at 37 °C. The reaction was initiated by addition of NADPH (1 mM), incubated at 37 °C for 10 min and quenched (0.5% Formic acid in internal standard (IS) containing ACN). Samples were then centrifuged and taken for LC–MS/MS analysis. Percent change in metabolite formation for each substrate under above conditions using formula: Percent inhibition = [1 − (test area ratio/control area ratio)] *100.

[2] = target: T2, recombinant human PAD4 enzyme (Homo sapiens, UniProt Q9UM07); test: PAD4 biochemical assay measuring ammonia release; conditions: 10 semi-log concentrations, figure box prints no unit, x axis μM, read-out: IC50, inhibition of PAD4 enzymatic activity
T2 construct: Full-length recombinant human PAD4 used in the assay was produced at Jubilant Biosys Ltd, Bangalore; made in house
T2 sequence (Q9UM07 whole entry): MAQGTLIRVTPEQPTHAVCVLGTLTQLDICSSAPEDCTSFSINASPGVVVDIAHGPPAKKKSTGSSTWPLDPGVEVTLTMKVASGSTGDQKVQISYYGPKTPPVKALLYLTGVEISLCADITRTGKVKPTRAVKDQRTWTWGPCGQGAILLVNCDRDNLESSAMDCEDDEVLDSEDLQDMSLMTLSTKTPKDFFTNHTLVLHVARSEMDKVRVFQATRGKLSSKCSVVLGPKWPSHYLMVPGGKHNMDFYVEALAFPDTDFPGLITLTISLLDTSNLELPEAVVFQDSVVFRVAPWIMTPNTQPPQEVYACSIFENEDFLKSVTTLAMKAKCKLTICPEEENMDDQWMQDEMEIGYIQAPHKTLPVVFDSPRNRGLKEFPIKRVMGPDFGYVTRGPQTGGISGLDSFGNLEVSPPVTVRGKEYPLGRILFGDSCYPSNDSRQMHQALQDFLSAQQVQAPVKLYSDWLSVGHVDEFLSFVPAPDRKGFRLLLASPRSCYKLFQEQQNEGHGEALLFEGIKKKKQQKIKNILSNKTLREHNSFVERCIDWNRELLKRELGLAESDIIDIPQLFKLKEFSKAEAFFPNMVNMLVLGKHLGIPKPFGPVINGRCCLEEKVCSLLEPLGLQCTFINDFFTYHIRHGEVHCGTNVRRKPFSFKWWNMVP
Method: This assay relies on the ammonia produced when peptidylarginine deiminase 4 (PAD4) deiminates Nα-Benzoyl-L-arginine ethyl ester (BAEE) (Sigma, Catalog No: B4500), a non-natural substrate. The ammonia reacts with a detector i.e., ortho-phthaladehyde (OPA) (Sigma, Catalog No: P0657) resulting in a fluorescent product that is then analyzed at an excitation wavelength of 410 nm and an emission wavelength of 470 nm[33]. Full-length recombinant human PAD4 used in the assay was produced at Jubilant Biosys Ltd, Bangalore. PAD4 enzyme (125 nM) was diluted in Assay Buffer (100 mM HEPES, 50 mM NaCl, 2 mM DTT, 0.6 mg/ml BSA, pH7) and incubated with different concentrations of JBI-589 for 60 min at room temperature and then the reaction was initiated by the addition of substrate (1.5 mM BAEE (sigma) in 100 mM HEPES, 50 mM NaCl, 500 μM CaCl2, 2 mM DTT, pH7) then incubated with 1.5 mM BAEE substrate (Sigma) for another 60 min. The reaction was then stopped by the addition of detection buffer containing 50 mM EDTA, 2.6 mM ortho-phthalaldehyde and 2 mM DTT and fluorescence was measured. IC50 values were determined by sigmoidal dose–response curve (variable slope) using GraphPad Prism 5 software. […]

[3] = system: PBMCs; test: Cell Titer Glo viability assay, PBMC; type: cell-based, human; conditions: 24 h, up to 10 µM
Method: In a K2EDTA vacutainer, 50 mL blood from a healthy human donor was collected, diluted 1:1 with PBS, and gently layered on Histopaque-1077. The tube was centrifuged at 400 g for 30 min at room temperature in a swinging bucket rotor without brakes or acceleration. After centrifugation, the tubes were gently removed from the centrifuge to avoid disturbing the layers of RBC at the bottom, PBMC in the middle, and clear supernatant at the top. Plasma and platelet-rich upper layer was aspirated using a sterile pipette leaving the mononuclear cell layer (buffy coat) undisturbed at the interphase. This buffy coat layer was transferred with care to a fresh conical 50 mL tube, resuspended in PBS buffer and the tube was centrifuged for 10 min at 300 g at room temperature, and the resultant cell pellet was resuspended in complete RPMI medium. After repeating this step twice, the resultant isolated cells were used for the experiments.
The CellTiter-Glo luminescent cell viability assay was performed on neutrophils/peripheral blood mononuclear cells according to the manufacturer’s instructions (Promega, catalog number: G7570)[35]. Breifly, 0.25 million cells of Neutrophils /PBMC were seeded in a black 96 well clear bottom plate. Compound was added at desired concentrations in 1% DMSO. […] Luminescence was recorded with Perkin Elmer envision 2103 multilabel reader.

inhibition at 10 min, 10 µM ([1]; human liver microsomes, 10 µM, human liver microsome, read-out: CYP2C9 inhibition (% inh @10 µM)): < 50%
IC50 ([1]; predicted from % inhibition, text says major CYPs tested): > 10 µM
IC50 [2]: 0.122 µM and 0.123 µM
SMILES: Cc1c(-c2cc3ccccc3n2Cc2ccc(F)cc2)nc2cc(C(=O)N3CCC[C@@H](N)C3)ccn12 [JBI-589, (R)-(3-aminopiperidin-1-yl)(2-(1-(4-fluorobenzyl)-1H-indol-2-yl)-3-methylimidazo[1,2-a]pyridin-7-yl)methanone]
viability of PBMCs [3]: minimal or no changes
